pKi: −log10 of the molar value.

Usually pKi stands for the negative decadic logarithm of the Ki, by convention in mol/L. Read a high pKi as a low Ki.

Experiment [1] deals with Peptidyl-prolyl cis-trans isomerase FKBP1A (Homo sapiens, UniProt P62942). Description: Peptidyl Prolyl Isomerase (PPIase) Inibition Assay. Particulars: pH 8; 15 °C. The method, then: (§1) It is based on the observation that chymotrypsin cleaves the C-terminal amide bond only in the trans conformer of the chromogenic substrate. The rapid hydrolysis perturbs the cis-trans conformational equilibrium, which allows one to monitor the PPIase-catalyzed cis-to-trans isomerization. […] Rate constants were generated from the absorbance versus time plots at 8-12 compound concentrations. The Kiapp was determined from the corrected rate constants using an IC50 equation or a tight-binding equation by Morrison.
Peptidyl-prolyl cis-trans isomerase FKBP1A (Homo sapiens, UniProt P62942), sequence (P62942 whole entry): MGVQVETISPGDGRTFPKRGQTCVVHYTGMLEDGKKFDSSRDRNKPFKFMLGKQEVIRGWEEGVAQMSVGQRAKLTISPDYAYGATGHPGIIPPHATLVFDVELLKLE

The target of experiment [2] is Peptidyl-prolyl cis-trans isomerase FKBP1A (Bos taurus, UniProt P18203). The experiment in a line: Peptidyl Prolyl Isomerase (PPIase) Inibition Assay. The protocol:
as §1

Peptidyl-prolyl cis-trans isomerase FKBP1A (Bos taurus, UniProt P18203), sequence (P18203 whole entry): as the sequence (P62942 whole entry) above, with M50V, H95N, V99I counted along it

For `COc1cc2c(c(OC)c1)C1C3CCCC(C(=O)N1CC2)N3C(=O)C(=O)c1cc(Cl)ccc1Cl` (configuration not stated) [1-(2,5-dichlorophenyl)-2-{4,6-dimethoxy-12-oxo-11,17-diazatetracyclo[11.3.1.0^{2,11}.0^{3,8}]heptadeca-3(8),4,6-trien-17-yl}ethane-1,2-dione], the pKi in experiment [1] was 5.09.
The compound `COc1cc2c(c(OC)c1)C1C3CCCC(C(=O)N1CC2)N3C(=O)Nc1ccccc1` (configuration not stated) [4,6-dimethoxy-12-oxo-N-phenyl-11,17-diazatetracyclo[11.3.1.0^{2,11}.0^{3,8}]heptadeca-3(8),4,6-triene-17-carboxamide] gave a pKi in experiment [2] of 5.57.
Still for that read-out and setting: to `COc1cc2c(c(OC)c1)C1C3CCCC(C(=O)N1CC2)N3C(=O)Nc1ccccc1OC` (configuration not stated) [4,6-dimethoxy-N-(2-methoxyphenyl)-12-oxo-11,17-diazatetracyclo[11.3.1.0^{2,11}.0^{3,8}]heptadeca-3(8),4,6-triene-17-carboxamide] belongs 6.45; to `COc1cc2c(c(OC)c1)C1C3CCCC(C(=O)N1CC2)N3C(=O)Nc1ccccc1C` (configuration not stated) [4,6-dimethoxy-N-(2-methylphenyl)-12-oxo-11,17-diazatetracyclo[11.3.1.0^{2,11}.0^{3,8}]heptadeca-3(8),4,6-triene-17-carboxamide], 6.48; to `COc1cc2c(c(OC)c1)C1C3CCCC(C(=O)N1CC2)N3C(=O)Nc1ccc([N+](=O)[O-])cc1` (configuration not stated) [4,6-dimethoxy-N-(4-nitrophenyl)-12-oxo-11,17-diazatetracyclo[11.3.1.0^{2,11}.0^{3,8}]heptadeca-3(8),4,6-triene-17-carboxamide], 6.11.
Same read-out and setting: the figure for `COc1cc(OC)cc(N2C=C3C4CCCC(C(=O)N3CC2=O)N4C(=O)C(=O)c2cc(OC)c(OC)c(OC)c2)c1` (configuration not stated) [4-(3,5-dimethoxyphenyl)-13-[2-oxo-2-(3,4,5-trimethoxyphenyl)acetyl]-4,7,13-triazatricyclo[7.3.1.0^{2,7}]tridec-2-ene-5,8-dione] is 7.27.
For the compound `COc1cc2c(c(OC)c1)C1C3CCCC(C(=O)N1CC2)N3C(=O)Nc1ccc(F)cc1F` (configuration not stated) [N-(2,4-difluorophenyl)-4,6-dimethoxy-12-oxo-11,17-diazatetracyclo[11.3.1.0^{2,11}.0^{3,8}]heptadeca-3(8),4,6-triene-17-carboxamide], the pKi in experiment [2] is 5.15. Against the preceding compound, the pKi is 2.12 log units lower.

(Values after BindingDB's records for doi:10.1021/jm049161u (Pfizer, 2006).)
